Among the data in patent US20240109917A1 (ACTELION PHARMACEUTICALS LTD, priority 2020, published 2024) are IC50 values, retold here.

One test addresses PDGFRβ (Rattus norvegicus (Rat), UniProt Q05030). Kind of test: PDGFRβ Cellular Assay (PDGFRb P-Y751 HTRF in A10 cells stimulated with PDGF-BB). The format is cell-based. Summed up:
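Rat A10 cells, plated overnight, were treated with compound for 3 hours, then stimulated with PDGF-BB (working stock 100 ng/mL in 10% FBS medium). After lysis, PDGFRβ P-Y751 was detected by HTRF.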
Background: Time-resolved FRET reads energy transfer from a long-lived donor to a nearby acceptor.

The next test addresses VEGFR2, unphosphorylated (Homo sapiens (Human), UniProt P35968). The test can be described thus: VEGFR ADP GLO Assay. It counts as biochemical. Background: ADP-Glo first removes unused ATP, then detects ADP through luciferase.
The target in test [1] is Tb-labeled inactive PDGFRβ (Homo sapiens (Human), UniProt P09619). Kind of test: PDGFRβ LanthaScreen Assay. The format is binding. Particulars: read-out: PDGFR Lantha IC50.

Where two headings read alike, the source gives them in different places.

Chain of PDGFRβ (Q05030 32-1097): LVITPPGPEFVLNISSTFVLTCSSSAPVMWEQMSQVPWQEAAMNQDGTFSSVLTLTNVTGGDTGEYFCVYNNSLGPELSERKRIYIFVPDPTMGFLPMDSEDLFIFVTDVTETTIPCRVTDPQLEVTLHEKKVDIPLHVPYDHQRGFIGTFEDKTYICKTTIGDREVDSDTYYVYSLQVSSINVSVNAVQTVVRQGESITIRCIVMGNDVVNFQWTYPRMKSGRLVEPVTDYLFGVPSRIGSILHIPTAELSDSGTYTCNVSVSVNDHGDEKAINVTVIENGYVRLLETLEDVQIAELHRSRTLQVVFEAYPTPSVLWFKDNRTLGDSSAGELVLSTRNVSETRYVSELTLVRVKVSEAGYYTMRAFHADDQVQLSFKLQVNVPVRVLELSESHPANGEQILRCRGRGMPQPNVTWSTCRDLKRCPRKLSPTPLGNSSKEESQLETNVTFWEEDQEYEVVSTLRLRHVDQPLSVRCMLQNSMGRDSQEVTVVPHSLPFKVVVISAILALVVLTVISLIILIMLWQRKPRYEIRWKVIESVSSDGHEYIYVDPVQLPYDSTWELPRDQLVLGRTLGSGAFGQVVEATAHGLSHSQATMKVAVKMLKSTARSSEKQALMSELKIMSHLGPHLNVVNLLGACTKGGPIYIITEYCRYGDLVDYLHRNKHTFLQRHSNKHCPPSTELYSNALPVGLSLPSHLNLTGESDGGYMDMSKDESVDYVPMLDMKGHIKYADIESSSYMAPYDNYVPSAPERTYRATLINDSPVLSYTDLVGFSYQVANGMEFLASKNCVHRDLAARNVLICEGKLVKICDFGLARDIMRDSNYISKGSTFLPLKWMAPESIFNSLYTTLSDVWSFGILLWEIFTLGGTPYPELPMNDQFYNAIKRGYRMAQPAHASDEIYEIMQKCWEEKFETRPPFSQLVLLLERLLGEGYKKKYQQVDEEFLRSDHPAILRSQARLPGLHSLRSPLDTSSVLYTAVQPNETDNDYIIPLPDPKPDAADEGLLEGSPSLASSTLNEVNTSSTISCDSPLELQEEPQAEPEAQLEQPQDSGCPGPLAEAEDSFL
Chain of VEGFR2, unphosphorylated (P35968 20-1356): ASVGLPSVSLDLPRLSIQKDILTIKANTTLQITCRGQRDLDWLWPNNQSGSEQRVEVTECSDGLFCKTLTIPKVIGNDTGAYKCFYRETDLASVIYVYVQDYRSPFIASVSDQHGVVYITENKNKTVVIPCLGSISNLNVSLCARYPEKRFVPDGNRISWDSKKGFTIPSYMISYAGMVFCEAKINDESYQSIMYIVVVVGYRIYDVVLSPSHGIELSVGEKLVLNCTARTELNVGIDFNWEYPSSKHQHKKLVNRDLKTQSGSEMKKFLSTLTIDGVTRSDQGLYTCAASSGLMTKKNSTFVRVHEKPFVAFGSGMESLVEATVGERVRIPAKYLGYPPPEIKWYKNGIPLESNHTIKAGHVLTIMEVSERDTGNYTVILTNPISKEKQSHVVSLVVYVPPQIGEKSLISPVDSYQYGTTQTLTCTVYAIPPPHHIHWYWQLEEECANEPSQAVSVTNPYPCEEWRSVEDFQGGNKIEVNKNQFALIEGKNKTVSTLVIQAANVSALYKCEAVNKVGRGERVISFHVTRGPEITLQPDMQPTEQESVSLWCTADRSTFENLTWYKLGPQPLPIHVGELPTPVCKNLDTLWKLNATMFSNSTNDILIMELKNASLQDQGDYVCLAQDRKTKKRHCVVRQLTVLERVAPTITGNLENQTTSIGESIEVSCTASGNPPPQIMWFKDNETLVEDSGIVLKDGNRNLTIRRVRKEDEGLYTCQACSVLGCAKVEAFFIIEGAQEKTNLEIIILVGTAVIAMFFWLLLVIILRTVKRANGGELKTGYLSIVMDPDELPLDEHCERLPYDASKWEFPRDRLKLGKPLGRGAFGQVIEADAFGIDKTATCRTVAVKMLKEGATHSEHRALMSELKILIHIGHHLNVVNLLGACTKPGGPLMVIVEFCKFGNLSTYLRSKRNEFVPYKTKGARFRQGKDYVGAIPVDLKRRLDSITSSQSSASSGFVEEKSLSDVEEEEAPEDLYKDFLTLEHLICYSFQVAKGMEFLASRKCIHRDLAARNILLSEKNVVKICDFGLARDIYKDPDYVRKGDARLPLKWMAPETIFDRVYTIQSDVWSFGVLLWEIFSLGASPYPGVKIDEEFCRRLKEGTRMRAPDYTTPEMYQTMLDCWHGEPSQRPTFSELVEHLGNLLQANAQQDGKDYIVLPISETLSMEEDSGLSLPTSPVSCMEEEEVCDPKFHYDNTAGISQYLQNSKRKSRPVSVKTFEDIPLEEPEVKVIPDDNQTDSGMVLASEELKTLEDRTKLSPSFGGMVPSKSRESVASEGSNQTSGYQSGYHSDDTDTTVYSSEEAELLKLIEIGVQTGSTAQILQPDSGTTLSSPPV
Chain of Tb-labeled inactive PDGFRβ (P09619 33-1106): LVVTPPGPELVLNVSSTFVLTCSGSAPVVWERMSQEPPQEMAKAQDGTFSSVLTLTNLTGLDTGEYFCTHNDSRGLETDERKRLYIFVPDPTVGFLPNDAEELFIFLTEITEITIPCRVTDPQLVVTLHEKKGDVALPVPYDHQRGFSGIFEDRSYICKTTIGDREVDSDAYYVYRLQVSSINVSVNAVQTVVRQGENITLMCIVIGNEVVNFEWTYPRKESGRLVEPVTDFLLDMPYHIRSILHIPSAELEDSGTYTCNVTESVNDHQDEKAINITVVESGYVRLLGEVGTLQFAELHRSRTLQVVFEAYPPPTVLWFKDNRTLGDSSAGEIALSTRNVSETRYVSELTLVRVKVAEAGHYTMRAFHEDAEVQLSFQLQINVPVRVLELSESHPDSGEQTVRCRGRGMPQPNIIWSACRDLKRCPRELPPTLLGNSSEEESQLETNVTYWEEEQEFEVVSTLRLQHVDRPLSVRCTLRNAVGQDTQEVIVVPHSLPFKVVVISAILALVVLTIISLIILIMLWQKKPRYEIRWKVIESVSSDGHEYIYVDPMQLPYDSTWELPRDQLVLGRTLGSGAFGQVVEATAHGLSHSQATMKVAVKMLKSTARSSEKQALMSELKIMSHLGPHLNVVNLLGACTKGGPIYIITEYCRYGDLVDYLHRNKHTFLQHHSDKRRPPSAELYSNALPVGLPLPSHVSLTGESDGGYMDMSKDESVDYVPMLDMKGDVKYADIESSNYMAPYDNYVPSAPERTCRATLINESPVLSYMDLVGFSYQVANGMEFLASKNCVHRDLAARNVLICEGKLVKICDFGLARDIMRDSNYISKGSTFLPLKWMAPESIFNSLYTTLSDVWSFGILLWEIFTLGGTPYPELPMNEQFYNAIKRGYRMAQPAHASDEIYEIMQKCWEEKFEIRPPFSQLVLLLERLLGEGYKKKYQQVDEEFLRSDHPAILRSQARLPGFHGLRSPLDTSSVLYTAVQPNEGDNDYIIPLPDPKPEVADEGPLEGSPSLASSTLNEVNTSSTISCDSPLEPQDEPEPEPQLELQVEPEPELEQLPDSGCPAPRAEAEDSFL

By IC50 is commonly meant the point on the concentration scale where inhibition reaches its midpoint. Turning to `COCC1CCCN1CC(=O)Nc1cnc(C)c(NC(=O)c2cnn3cc(-c4cnn(C)c4)sc23)c1` (stereo not drawn) [Example 79, N-(5-(2-(2-(methoxymethyl)pyrrolidin-1-yl)acetamido)-2-methylpyridin-3-yl)-2-(1-methyl-1H-pyrazol-4-yl)pyrazolo[5,1-b]thiazole-7-carboxamide], the IC50 at PDGFRβ (read-out: PDGFR Cellular IC50) is 12.6 nM; against VEGFR2, unphosphorylated it was over 7500 nM; in test [1], 10.9 nM.

`Cc1ncc(NC(=O)CN2CCCOCC2)cc1NC(=O)c1cnn2cc(-c3cnn(C)c3)sc12` [Example 80, N-(5-(2-(1,4-oxazepan-4-yl)acetamido)-2-methylpyridin-3-yl)-2-(1-methyl-1H-pyrazol-4-yl)pyrazolo[5,1-b]thiazole-7-carboxamide]: the IC50 at PDGFRβ (read-out: PDGFR Cellular IC50) is 37.8 nM; on VEGFR2, unphosphorylated, over 7500 nM; in test [1], 19.3 nM.

For `Cc1ncc(NC(=O)CN2CCC3(CCO3)CC2)cc1NC(=O)c1cnn2cc(-c3cnn(C)c3)sc12` [Example 81, N-(5-(2-(1-oxa-7-azaspiro[3.5]nonan-7-yl)acetamido)-2-methylpyridin-3-yl)-2-(1-methyl-1H-pyrazol-4-yl)pyrazolo[5,1-b]thiazole-7-carboxamide], the IC50 is 79.8 nM on PDGFRβ (read-out: PDGFR Cellular IC50); over 7500 nM against VEGFR2, unphosphorylated; 76.8 nM in test [1].

Regarding `Cc1ncc(NC(=O)CN2CCC2(C)C)cc1NC(=O)c1cnn2cc(-c3cnn(C)c3)sc12` [Example 82, N-(5-(2-(2,2-dimethylazetidin-1-yl)acetamido)-2-methylpyridin-3-yl)-2-(1-methyl-1H-pyrazol-4-yl)pyrazolo[5,1-b]thiazole-7-carboxamide], the IC50 at PDGFRβ (read-out: PDGFR Cellular IC50) was 12.5 nM; against VEGFR2, unphosphorylated, over 7500 nM; in test [1], 24.3 nM.

Take `COC1CCN(CC(=O)Nc2cnc(C)c(NC(=O)c3cnn4cc(-c5cnn(C)c5)sc34)c2)CC1` [Example 83, N-(5-(2-(4-methoxypiperidin-1-yl)acetamido)-2-methylpyridin-3-yl)-2-(1-methyl-1H-pyrazol-4-yl)pyrazolo[5,1-b]thiazole-7-carboxamide]: the IC50 at PDGFRβ (read-out: PDGFR Cellular IC50) is 44.1 nM; against VEGFR2, unphosphorylated, over 7500 nM; in test [1] it was 35 nM.

For `Cc1ncc(NC(=O)CN2CCC[C@@H]2C)cc1NC(=O)c1cnn2cc(-c3cnn(CCO)c3)sc12` [Example 84, (S)-2-(1-(2-hydroxyethyl)-1H-pyrazol-4-yl)-N-(2-methyl-5-(2-(2-methylpyrrolidin-1-yl)acetamido)pyridin-3-yl)pyrazolo[5,1-b]thiazole-7-carboxamide], the IC50 is 40.2 nM at PDGFRβ (read-out: PDGFR Cellular IC50); over 7500 nM against VEGFR2, unphosphorylated; 10.9 nM in test [1].

Take `Cc1ncc(NC(=O)CN2CCCCC23CC3)cc1NC(=O)c1cnn2cc(-c3cnn(CCO)c3)sc12` [Example 86, N-(5-(2-(4-azaspiro[2.5]octan-4-yl)acetamido)-2-methylpyridin-3-yl)-2-(1-(2-hydroxyethyl)-1H-pyrazol-4-yl)pyrazolo[5,1-b]thiazole-7-carboxamide]: the IC50 on PDGFRβ (read-out: PDGFR Cellular IC50) was 18.4 nM; against VEGFR2, unphosphorylated, over 7500 nM; in test [1], 7.3 nM.

In the case of `Cc1ncc(NC(=O)CN2CCCC23CC3)cc1NC(=O)c1cnn2cc(-c3cnn(CCO)c3)sc12` [Example 87, N-(5-(2-(4-azaspiro[2.4]heptan-4-yl)acetamido)-2-methylpyridin-3-yl)-2-(1-(2-hydroxyethyl)-1H-pyrazol-4-yl)pyrazolo[5,1-b]thiazole-7-carboxamide], the IC50 at PDGFRβ (read-out: PDGFR Cellular IC50) was 1 nM; at VEGFR2, unphosphorylated, over 7500 nM; in test [1] it was 3.2 nM.

In the case of `Cc1ncc(NC(=O)CCN2CCCC2(C)C)cc1NC(=O)c1cnn2cc(-c3cnn(CCO)c3)sc12` [Example 88, N-(5-(3-(2,2-dimethylpyrrolidin-1-yl)propanamido)-2-methylpyridin-3-yl)-2-(1-(2-hydroxyethyl)-1H-pyrazol-4-yl)pyrazolo[5,1-b]thiazole-7-carboxamide], the IC50 on PDGFRβ (read-out: PDGFR Cellular IC50) is 141 nM; against VEGFR2, unphosphorylated it was over 7500 nM; in test [1], 4.2 nM.

Turning to `COCCn1cc(-c2cn3ncc(C(=O)Nc4cc(NC(=O)CCN5CCC(C)(C)C5)cnc4C)c3s2)cn1` [Example 89, N-(5-(3-(3,3-dimethylpyrrolidin-1-yl)propanamido)-2-methylpyridin-3-yl)-2-(1-(2-methoxyethyl)-1H-pyrazol-4-yl)pyrazolo[5,1-b]thiazole-7-carboxamide], the IC50 on PDGFRβ (read-out: PDGFR Cellular IC50) was 26.2 nM; against VEGFR2, unphosphorylated, over 7500 nM; in test [1] it was 12.7 nM.

On to `COCCn1cc(-c2cn3ncc(C(=O)Nc4cc(NC(=O)CCN5CCC6(CCC6)C5)cnc4C)c3s2)cn1` [Example 90, N-(5-(3-(6-azaspiro[3.4]octan-6-yl)propanamido)-2-methylpyridin-3-yl)-2-(1-(2-methoxyethyl)-1H-pyrazol-4-yl)pyrazolo[5,1-b]thiazole-7-carboxamide], for which the IC50 on PDGFRβ (read-out: PDGFR Cellular IC50) was 19.9 nM; on VEGFR2, unphosphorylated, over 2500 nM; in test [1], 10.6 nM.

For the molecule `COCCn1cc(-c2cn3ncc(C(=O)Nc4cc(NC(=O)CCN5CCC6(CC6)C5)cnc4C)c3s2)cn1` [Example 91, N-(5-(3-(5-azaspiro[2.4]heptan-5-yl)propanamido)-2-methylpyridin-3-yl)-2-(1-(2-methoxyethyl)-1H-pyrazol-4-yl)pyrazolo[5,1-b]thiazole-7-carboxamide], the IC50 on PDGFRβ (read-out: PDGFR Cellular IC50) was 36.4 nM; against VEGFR2, unphosphorylated, over 7500 nM; in test [1], 13.2 nM.

On to `COCCn1cc(-c2cn3ncc(C(=O)Nc4cc(NC(=O)CCN5C[C@@H]6CC[C@H]5C6)cnc4C)c3s2)cn1` [Example 92, N-(5-(3-((1S,4R)-2-azabicyclo[2.2.1]heptan-2-yl)propanamido)-2-methylpyridin-3-yl)-2-(1-(2-methoxyethyl)-1H-pyrazol-4-yl)pyrazolo[5,1-b]thiazole-7-carboxamide], for which the IC50 on PDGFRβ (read-out: PDGFR Cellular IC50) was 122 nM; against VEGFR2, unphosphorylated, over 7500 nM; in test [1], 7.2 nM.

As for `COCCn1cc(-c2cn3ncc(C(=O)Nc4cc(NC(=O)CCN5CC(C)(C)C5)cnc4C)c3s2)cn1` [Example 93, N-(5-(3-(3,3-dimethylazetidin-1-yl)propanamido)-2-methylpyridin-3-yl)-2-(1-(2-methoxyethyl)-1H-pyrazol-4-yl)pyrazolo[5,1-b]thiazole-7-carboxamide], the IC50 at PDGFRβ (read-out: PDGFR Cellular IC50) is 66 nM; at VEGFR2, unphosphorylated, over 7500 nM; in test [1] it was 29.1 nM.

Consider `COCCn1cc(-c2cn3ncc(C(=O)Nc4cc(NC(=O)CCN5C[C@H]6CC[C@@H]5C6)cnc4C)c3s2)cn1` [Example 94, N-(5-(3-((1R,4S)-2-azabicyclo[2.2.1]heptan-2-yl)propanamido)-2-methylpyridin-3-yl)-2-(1-(2-methoxyethyl)-1H-pyrazol-4-yl)pyrazolo[5,1-b]thiazole-7-carboxamide], for which the 50% inhibitory concentration (IC50) is 143 nM on PDGFRβ (read-out: PDGFR Cellular IC50); over 7500 nM against VEGFR2, unphosphorylated; 14.2 nM in test [1].

Turning to `Cc1ncc(C(=O)NCCN2CCCC2(C)C)cc1NC(=O)c1cnn2cc(-c3ccnc(N4CCOCC4)c3)sc12` [Example 483, N-(5-((2-(2,2-dimethylpyrrolidin-1-yl)ethyl)carbamoyl)-2-methylpyridin-3-yl)-2-(2-morpholinopyridin-4-yl)pyrazolo[5,1-b]thiazole-7-carboxamide], the IC50 against PDGFRβ (PDGFR Cellular IC50) was 17.7 nM; against VEGFR2, unphosphorylated it was over 7500 nM; in test [1], 2.1 nM.

Regarding `Cc1ncc(C(=O)NCCN2CC3CCC2CC3)cc1NC(=O)c1cnn2cc(-c3ccnc(N4CCOCC4)c3)sc12` [Example 484, N-(5-((2-(2-azabicyclo[2.2.2]octan-2-yl)ethyl)carbamoyl)-2-methylpyridin-3-yl)-2-(2-morpholinopyridin-4-yl)pyrazolo[5,1-b]thiazole-7-carboxamide], the IC50 at PDGFRβ (read-out: PDGFR Cellular IC50) is 44.1 nM; at VEGFR2, unphosphorylated, over 7500 nM; in test [1], 1.4 nM.

As for `COCCn1cc(-c2cn3ncc(C(=O)Nc4cc(NC(=O)C[C@H]5CCCN5C(C)C)cnc4C)c3s2)cn1` [Example 485, (R)—N-(5-(2-(1-isopropylpyrrolidin-2-yl)acetamido)-2-methylpyridin-3-yl)-2-(1-(2-methoxyethyl)-1H-pyrazol-4-yl)pyrazolo[5,1-b]thiazole-7-carboxamide], the IC50 is 34.4 nM at PDGFRβ (read-out: PDGFR Cellular IC50); over 7500 nM against VEGFR2, unphosphorylated; 16.3 nM in test [1].

With `COCCn1cc(-c2cn3ncc(C(=O)Nc4cc(NC(=O)C[C@H]5CCN(C(C)C)C5)cnc4C)c3s2)cn1` [Example 486, (R)—N-(5-(2-(1-isopropylpyrrolidin-3-yl)acetamido)-2-methylpyridin-3-yl)-2-(1-(2-methoxyethyl)-1H-pyrazol-4-yl)pyrazolo[5,1-b]thiazole-7-carboxamide], the IC50 on PDGFRβ (read-out: PDGFR Cellular IC50) was 2000 nM; against VEGFR2, unphosphorylated, over 7500 nM; in test [1], 127 nM.

For `COCCn1cc(-c2cn3ncc(C(=O)Nc4cc(NC(=O)C5(CN6CCCC6(C)C)CC5)cnc4C)c3s2)cn1` [Example 487, N-(5-(1-((2,2-dimethylpyrrolidin-1-yl)methyl)cyclopropane-carboxamido)-2-methylpyridin-3-yl)-2-(1-(2-methoxyethyl)-1H-pyrazol-4-yl)pyrazolo[5,1-b]thiazole-7-carboxamide], the IC50 is 42.6 nM on PDGFRβ (read-out: PDGFR Cellular IC50); over 7500 nM against VEGFR2, unphosphorylated; 197 nM in test [1].

As for `COCCn1cc(-c2cn3ncc(C(=O)Nc4cc(NC(=O)C(C)(C)CN5CCCC5(C)C)cnc4C)c3s2)cn1` [Example 488, N-(5-(3-(2,2-dimethylpyrrolidin-1-yl)-2,2-dimethyl-propanamido)-2-methylpyridin-3-yl)-2-(1-(2-methoxyethyl)-1H-pyrazol-4-yl)pyrazolo[5,1-b]thiazole-7-carboxamide], the IC50 at PDGFRβ (read-out: PDGFR Cellular IC50) is 375 nM; on VEGFR2, unphosphorylated it was over 7500 nM; in test [1], 1280 nM.
